Columns and labels:
[1] = toxicity (LD50) in mice, I.V. and P.O.; settings: mouse, in vivo
fibrinolytic activity = fibrinolytic activity in male rats after P.O. administration; assay type: in vivo; settings: 25 mg/kg P.O.
Method: The fibrinolytic activity was determined on a batch of 7 male rats after administration of 25 mg/kg P.O. of compound I. It was observed that the fibrinolytic activity increases respectively of 14 and 11%, 60 and 90 minutes after the administration of the product. The return to basis values takes place 3 hours after this administration.

monomers of fibrin = test: level of monomers of fibrin in the rabbit after I.V. administration; assay type: in vivo; settings: 5 mg/kg I.V.
From the text: This decrease reaches 23%, ten minutes after the injection.

platelet stickiness = test: platelet stickiness, Salzman method, in the rabbit; assay type: in vivo; settings: 50 mg/kg P.O., 4 hours after administration
Method: By using the Salzman method, J. Lab. Clin. Med. 62, 724 (1963), it was observed that the compound I decreases by 20% the platelet stickiness, 4 hours after the administration of 50 mg/kg P.O. of the product in the rabbit.

erythrocytes from human = test: aggregation of erythrocytes induced by Dextran, in vitro, human erythrocytes; assay type: cell-based; settings: at 0.001 and 0.002 molar
From the text: (§1) The inhibiting action of compound I on the aggregation of erythrocytes induced by Dextran was evidenced in vitro on erythrocytes from human, dog and rabbit, according to the method of Von Kaulla K.N., ArzneimittelForschung, Drug Research 25 (2) 152-155 (1975).

erythrocytes from dog = test: aggregation of erythrocytes induced by Dextran, in vitro, dog erythrocytes; assay type: cell-based; settings: at 0.001 and 0.002 molar
From the text: as §1

erythrocytes from rabbit = test: aggregation of erythrocytes induced by Dextran, in vitro, rabbit erythrocytes; assay type: cell-based; settings: at 0.001 and 0.002 molar
From the text: as §1

plasmatic clot = test: retraction of plasmatic clot in vitro; assay type: biochemical; settings: concentrations ≥ 1,79 mg/ml of plasma, 60 minutes
Method: The inhibiting action of compound I on the retraction of plasmatic clot was evidenced in vitro. At the concentrations ≥ 1,79 mg/ml of plasma, the compound I inhibits totally (100%) the normal retraction of the clot measured for a lapse of 60 minutes.

α2 -macroglobulins = test: fibrinolytic inhibitors: α2-macroglobulins titrated by radial immuno-diffusion in standard plasma; assay type: biochemical; settings: one hour at 37° C.
Method: (§2) The main inhibitors of anti-plasminic type, viz. α2 -macroglobulins, α1 -anti-trypsins and anti-thrombin III were titrated according to the radial immuno-diffusion techniques.
(§3) Three concentrations of compound I were incorporated to a pool of standard plasma and incubated for one hour at 37° C. At non-lytic doses by deficiency (suspended standard clots) the compound I gives a decrease of about 10% of α2 -macroglobulins level, a decrease of about 20% of α1 -anti-trypsins level and a decrease of about 10% of anti-thrombin III level.

α1 -anti-trypsins = test: fibrinolytic inhibitors: α1-anti-trypsins titrated by radial immuno-diffusion in standard plasma; assay type: biochemical; settings: one hour at 37° C.
Method: as §2, §3

anti-thrombin III = test: fibrinolytic inhibitors: anti-thrombin III titrated by radial immuno-diffusion in standard plasma; assay type: biochemical; settings: one hour at 37° C.
Method: as §2, §3

fibrinogen = fibrinogen level in standard plasma incubated with compound I; assay type: biochemical; settings: non-lytic doses by excess (high concentrations)

CCCCCc1cc(O)c(C(=O)O)c(O)c1 [compound I, 4-n-pentyl-6-hydroxy salicylic acid]
LD50 ([1]; iv, I.V.): 50 to 100 mg/kg
LD50 ([1]; po, P.O.): 1000 to 1500 mg/kg
return of fibrinolytic activity to basis values, time after administration (fibrinolytic activity): 3 h
increase of fibrinolytic activity (fibrinolytic activity; 60 minutes after administration): 14%
increase of fibrinolytic activity (fibrinolytic activity; 90 minutes after administration): 11%
decrease of the level of monomers of fibrin (monomers of fibrin; ten minutes after injection): 23%
decrease of the level of monomers of fibrin (monomers of fibrin; two minutes after injection): 10%
decrease of platelet stickiness (platelet stickiness): 20%
inhibition of the aggregation of erythrocytes induced by Dextran (erythrocytes from human): 100%
inhibition of the aggregation of erythrocytes induced by Dextran (erythrocytes from dog): 100%
inhibition of the aggregation of erythrocytes induced by Dextran (erythrocytes from rabbit): 100%
inhibition of the normal retraction of the clot (plasmatic clot): 100%
decrease of α2 -macroglobulins level (α2 -macroglobulins; lytic doses): about 20%
decrease of α2 -macroglobulins level (α2 -macroglobulins; non-lytic doses by deficiency): about 10%
decrease of α1 anti-trypsins level (α1 -anti-trypsins; lytic doses): 80%
decrease of α1 -anti-trypsins level (α1 -anti-trypsins; non-lytic doses by deficiency): about 20%
decrease of anti-thrombin III level (anti-thrombin III; lytic doses): 50%
decrease of anti-thrombin III level (anti-thrombin III; non-lytic doses by deficiency): about 10%
fibrinogen level (fibrinogen): important decrease

— patent publication US4132787A, “Pharmaceutical compositions containing a gamma-resorcylic acid derivative in the treatment of thrombosis” (Science Union et Cie, priority 1975, dated 1979)
